# Source: patent publication US8916702B2 (priority 2012, dated 2014)
# System: HCV pseudoparticles (genotype 1a HCV E1 and E2 envelope, H77C isolate)
# Assay: microbe, parasite or virus in culture
# Assay type: cell-based
# Details: Hepatitis C virus, Huh-7, 48 h, HCV pseudoparticle infection of Huh7 cells, luciferase 2 days after infection; average of duplicates
row,SMILES,EC50 [nM]
1,COC(=O)[C@H](CCNC(=O)C(=O)Nc1cccc(-c2ccccc2)c1)NC(=O)c1ccc(Nc2nc(NC3(c4ccc(Cl)cc4)CC3)nc(OCC(F)(F)F)n2)cc1 [Compound 1522],0.1
2,COC(=O)[C@H](CCNC(=O)C(=O)NC1CC(C)CC(C)(C)C1)NC(=O)c1ccc(Nc2nc(NC3(c4ccc(Cl)cc4)CC3)nc(OCC(F)(F)F)n2)cc1 (stereo partly drawn) [Compound 1107],0.46
3,COC(=O)[C@H](CNC(=O)C(=O)NC1(CC(C)C)CC1)NC(=O)c1ccc(Nc2nc(NC3(c4ccc(Cl)cc4)CC3)nc(OCC(F)(F)F)n2)cc1 [Compound 1058],1.15
4,O=C(NCC[C@H](NC(=O)c1ccc(Nc2nc(NC3(c4ccc(Cl)cc4)CC3)nc(OCC(F)(F)F)n2)cc1)C(=O)O)C(=O)Nc1cccc(-c2ccccc2)c1 [Compound 1523],0.26

# Same assay, conditions: Hepatitis C virus, Huh-7, 48 h, HCV pseudoparticles (genotype 1a, H77C) in Huh7 cells; average of duplicate; luciferase 2 days after infection
row,SMILES,EC50 [nM]
1,COC(=O)[C@H](CCNC(=O)C(=O)Nc1ccc(-n2ccnc2C)cc1)NC(=O)c1ccc(Nc2nc(NC3(c4ccc(Cl)cc4)CC3)nc(OCC(F)(F)F)n2)cc1 [Compound 3320],8.8

# Same assay, conditions: Hepatitis C virus, Huh-7, 48 h, HCV pseudoparticles, Huh7 cells, luciferase 2 days after infection; average of duplicates
row,SMILES,EC50 [nM]
1,O=C(NCC[C@H](NC(=O)c1ccc(Nc2nc(NC3(c4ccc(Cl)cc4)CC3)nc(OCC(F)(F)F)n2)cc1)C(=O)O)C(=O)Nc1ccc(Oc2ccccc2)nc1 [Compound 3640],16.1
2,COC(=O)[C@H](CNC(=O)C(=O)Nc1ccc(N2CCOCC2)nc1)NC(=O)c1ccc(Nc2nc(NC3(c4ccc(Cl)cc4)CC3)nc(OCC(F)(F)F)n2)cc1 [Compound 3703],1.33

# Same assay, conditions: Hepatitis C virus, Huh-7, 48 h, read-out: Activity (EC50 class), HCV pseudoparticle infection of Huh7 cells, luciferase 2 days after infection; EC50 expressed as class A/B
row,SMILES,EC50 [nM]
1,COC(=O)[C@H](CCNC(=O)C(=O)Nc1cccc(-c2ccccc2)c1)NC(=O)c1ccc(Nc2nc(NC3(c4ccc(Cl)cc4)CC3)nc(OCC(F)(F)F)n2)cc1 [Compound 1522],0.01 to 10
2,CC(C)(CNC(=O)C(=O)Nc1ccc(Cc2ccccc2)cc1)CNC(=O)c1ccc(Nc2nc(NC3(c4ccc(Cl)cc4)CC3)nc(OCC(F)(F)F)n2)cc1 [Compound 1579],0.01 to 10
3,COC(=O)[C@H](CNC(=O)C(=O)NCC1CCCCC1)NC(=O)c1ccc(Nc2nc(NC3(c4ccc(Cl)cc4)CC3)nc(OCC(F)(F)F)n2)cc1 [Compound 1149],0.01 to 10
4,COc1ccc(NC(=O)C(=O)NCC[C@H](NC(=O)c2ccc(Nc3nc(NC4(c5ccc(Cl)cc5)CC4)nc(OCC(F)(F)F)n3)cc2)C(=O)O)cn1 [Compound 1262],0.01 to 10
5,COc1cccc(NC(=O)C(=O)NC[C@H](NC(=O)c2ccc(Nc3nc(NC4(c5ccc(Cl)cc5)CC4)nc(OCC(F)(F)F)n3)cc2)C(=O)O)c1 [Compound 1358],0.01 to 10
6,O=C(NCC[C@H](NC(=O)c1ccc(Nc2nc(NC3(c4ccc(Cl)cc4)CC3)nc(OCC(F)(F)F)n2)cc1)C(=O)O)C(=O)NCC1(Cn2cccn2)CC1 [Compound 1428],0.01 to 10
7,COC(=O)[C@H](CNC(=O)C(=O)NC1CCCC(C)C1)NC(=O)c1ccc(Nc2nc(NC3(c4ccc(Cl)cc4)CC3)nc(OCC(F)(F)F)n2)cc1 (stereo partly drawn) [Compound 1059],0.01 to 10
8,Cn1ccc(NC(=O)C(=O)NCC[C@H](NC(=O)c2ccc(Nc3nc(NC4(c5ccc(Cl)cc5)CC4)nc(OCC(F)(F)F)n3)cc2)C(=O)O)n1 [Compound 1263],0.01 to 10
9,O=C(NCC[C@@H](NC(=O)c1ccc(Nc2nc(NC3(c4ccc(Cl)cc4)CC3)nc(OCC(F)(F)F)n2)cc1)C(=O)O)C(=O)Nc1ccc(-c2ccccc2)cc1 [Compound 1557],0.01 to 10
10,COC(=O)[C@H](CCNC(=O)C(=O)NC1CC(C)CC(C)(C)C1)NC(=O)c1ccc(Nc2nc(NC3(c4ccc(Cl)cc4)CC3)nc(OCC(F)(F)F)n2)cc1 (stereo partly drawn) [Compound 1107],0.01 to 10
11,CC(C)(CNC(=O)C(=O)N1CCc2ccccc2C1)CNC(=O)c1ccc(Nc2nc(NC3(c4ccc(Cl)cc4)CC3)nc(OCC(F)(F)F)n2)cc1 [Compound 1545],0.01 to 10
12,CC1CC(NC(=O)C(=O)NC[C@H](NC(=O)c2ccc(Nc3nc(NC4(c5ccc(Cl)cc5)CC4)nc(OCC(F)(F)F)n3)cc2)C(=O)O)CC(C)(C)C1 (stereo partly drawn) [Compound 1088],0.01 to 10
13,COC(=O)[C@H](CCNC(=O)C(=O)NC(CCO)C1CC1)NC(=O)c1ccc(Nc2nc(NC3(c4ccc(Cl)cc4)CC3)nc(OCC(F)(F)F)n2)cc1 (stereo partly drawn) [Compound 1391],0.01 to 10
14,Cn1ccc(NC(=O)C(=O)NC[C@H](NC(=O)c2ccc(Nc3nc(NC4(c5ccc(Cl)cc5)CC4)nc(OCC(F)(F)F)n3)cc2)C(=O)O)n1 [Compound 1351],0.01 to 10
15,COC(=O)[C@H](CNC(=O)C(=O)NC1(CC(C)C)CC1)NC(=O)c1ccc(Nc2nc(NC3(c4ccc(Cl)cc4)CC3)nc(OCC(F)(F)F)n2)cc1 [Compound 1058],0.01 to 10
16,O=C(NCC[C@H](NC(=O)c1ccc(Nc2nc(NC3(c4ccc(Cl)cc4)CC3)nc(OCC(F)(F)F)n2)cc1)C(=O)O)C(=O)Nc1cccc(-c2ccccc2)c1 [Compound 1523],0.01 to 10
17,COC(=O)[C@H](CCNC(=O)C(=O)NCC1CC1c1cc(F)ccc1F)NC(=O)c1ccc(Nc2nc(NC3(c4ccc(Cl)cc4)CC3)nc(OCC(F)(F)F)n2)cc1 (stereo partly drawn) [Compound 1373],0.01 to 10
18,CC(C)(CNC(=O)C(=O)Nc1ccc(C(=O)O)cc1)CNC(=O)c1ccc(Nc2nc(NC3(c4ccc(Cl)cc4)CC3)nc(OCC(F)(F)F)n2)cc1 [Compound 1457],0.01 to 10
19,O=C(NCC[C@H](NC(=O)c1ccc(Nc2nc(NC3(c4ccc(Cl)cc4)CC3)nc(OCC(F)(F)F)n2)cc1)C(=O)O)C(=O)Nc1ccncc1 [Compound 1278],0.01 to 10

# Same assay, conditions: Hepatitis C virus, Huh-7, 48 h, read-out: Activity (EC50 class), HCV pseudoparticles, Huh7 cells, luciferase 2 days after infection; average of duplicates
row,SMILES,EC50 [nM]
1,O=C(NC[C@H](NC(=O)c1ccc(Nc2nc(NC3(c4ccc(Cl)cc4)CC3)nc(OCC(F)(F)F)n2)cc1)C(=O)Cl)C(=O)Nc1cccc(OCc2ccccc2)c1 [Compound 3742],0.01 to 10
2,O=C(NCC[C@H](NC(=O)c1ccc(Nc2nc(NC3(c4ccc(Cl)cc4)CC3)nc(OCC(F)(F)F)n2)cc1)C(=O)O)C(=O)Nc1cccc(Oc2cccnc2)c1 [Compound 3662],0.01 to 10
3,CC(C)(CNC(=O)C(=O)Nc1ccc2sccc2c1)CNC(=O)c1ccc(Nc2nc(NC3(c4ccc(Cl)cc4)CC3)nc(OCC(F)(F)F)n2)cc1 [Compound 3666],0.01 to 10
4,COC(=O)[C@H](CNC(=O)C(=O)Nc1cccc(-c2csc(C)n2)c1)NC(=O)c1ccc(Nc2nc(NC3(c4ccc(Cl)cc4)CC3)nc(OCC(F)(F)F)n2)cc1 [Compound 3718],0.01 to 10
5,O=C(NCC[C@H](NC(=O)c1ccc(Nc2nc(NC3(c4ccc(Cl)cc4)CC3)nc(OCC(F)(F)F)n2)cc1)C(=O)O)C(=O)Nc1ccc(Oc2ccccc2)nc1 [Compound 3640],10 to 1000
6,Cc1ccc(NC(=O)C(=O)NCC(C)(C)CNC(=O)c2ccc(Nc3nc(NC4(c5ccc(Cl)cc5)CC4)nc(OCc4ccc(C(F)(F)F)cc4)n3)cc2)cc1 [Compound 3851],0.01 to 10
7,COC(=O)[C@H](CNC(=O)C(=O)Nc1ccc(N2CCOCC2)nc1)NC(=O)c1ccc(Nc2nc(NC3(c4ccc(Cl)cc4)CC3)nc(OCC(F)(F)F)n2)cc1 [Compound 3703],0.01 to 10
8,COC(=O)[C@H](CNC(=O)C(=O)Nc1cccc(S(=O)(=O)N2CCCCC2)c1)NC(=O)c1ccc(Nc2nc(NC3(c4ccc(Cl)cc4)CC3)nc(OCC(F)(F)F)n2)cc1 [Compound 3717],0.01 to 10
9,CC(C)(CNC(=O)C(=O)Nc1ccc(Oc2ccccc2)cc1)CNC(=O)c1ccc(Nc2nc(NC3(c4ccc(Cl)cc4)CC3)nc(OCC(F)(F)F)n2)cc1 [Compound 3672],0.01 to 10

# Same assay, conditions: Hepatitis C virus, Huh-7, read-out: Activity (EC50 class), HCV pseudoparticles (genotype 1a, H77C) in Huh7 cells; EC50 expressed as class A/B
row,SMILES,EC50 [nM]
1,COc1ccccc1NC(=O)C(=O)NCC(C)(C)CNC(=O)c1ccc(Nc2nc(NC3(c4ccc(Cl)cc4)CC3)nc(OCC(F)(F)F)n2)cc1 [Compound 3006],0.01 to 10
2,COC(=O)[C@H](CNC(=O)C(=O)Nc1ccc(N2CCN(Cc3ccccc3)CC2)cc1)NC(=O)c1ccc(Nc2nc(NC3(c4ccc(Cl)cc4)CC3)nc(OCC(F)(F)F)n2)cc1 [Compound 3102],0.01 to 10
3,Cc1nccn1Cc1ccc(NC(=O)C(=O)NCC[C@H](NC(=O)c2ccc(Nc3nc(NC4(c5ccc(Cl)cc5)CC4)nc(OCC(F)(F)F)n3)cc2)C(=O)O)cc1 [Compound 3542],10 to 1000
4,CN(CCCNC(=O)c1ccc(Nc2nc(NC3(c4ccc(Cl)cc4)CC3)nc(OCC(F)(F)F)n2)cc1)C(=O)C(=O)NCc1ccc(F)cc1 [Compound 3444],0.01 to 10
5,CC(C)c1ccc(NC(=O)C(=O)NCC[C@H](NC(=O)c2ccc(Nc3nc(NC4(c5ccc(Cl)cc5)CC4)nc(OCC(F)(F)F)n3)cc2)C(=O)O)cc1 [Compound 3550],0.01 to 10
6,CCc1ccc(NC(=O)C(=O)NCC[C@H](NC(=O)c2ccc(Nc3nc(NC4(c5ccc(Cl)cc5)CC4)nc(OCC(F)(F)F)n3)cc2)C(=O)OC)cc1 [Compound 3330],0.01 to 10
7,CC(C)(CNC(=O)C(=O)Nc1ccc(C#N)cc1)CNC(=O)c1ccc(Nc2nc(NC3(c4ccc(Cl)cc4)CC3)nc(OCC(F)(F)F)n2)cc1F [Compound 3516],0.01 to 10
8,Cc1ccc(NC(=O)C(=O)NC/C(=N/C(=O)c2ccc(Nc3nc(NC4(c5ccc(Cl)cc5)CC4)nc(OCC(F)(F)F)n3)cc2)C(=O)O)cc1 [Compound 3153],0.01 to 10
9,Cn1ncc2ccc(NC(=O)C(=O)NCC(C)(C)CNC(=O)c3ccc(Nc4nc(NC5(c6ccc(Cl)cc6)CC5)nc(OCC(F)(F)F)n4)cc3)cc21 [Compound 3024],0.01 to 10
10,Cc1ccc(NC(=O)C(=O)NC(C)(C)CNC(=O)c2ccc(Nc3nc(NC4(c5ccc(Cl)cc5)CC4)nc(OCC(F)(F)F)n3)cc2)cc1Cl [Compound 3441],0.01 to 10
11,CN(CCCN(C)C(=O)c1ccc(Nc2nc(NC3(c4ccc(Cl)cc4)CC3)nc(OCC(F)(F)F)n2)cc1)C(=O)C(=O)Nc1ccc(F)cc1F [Compound 3426],0.01 to 10
12,COC(=O)[C@H](CCNC(=O)C(=O)Nc1ccc(-n2ccnc2C)cc1)NC(=O)c1ccc(Nc2nc(NC3(c4ccc(Cl)cc4)CC3)nc(OCC(F)(F)F)n2)cc1 [Compound 3320],0.01 to 10
13,COC(=O)[C@H](CNC(=O)C(=O)Nc1ccc(Cn2cncn2)cc1)NC(=O)c1ccc(Nc2nc(NC3(c4ccc(Cl)cc4)CC3)nc(OCC(F)(F)F)n2)cc1 [Compound 3182],0.01 to 10
14,Cc1nc(-c2ccc(NC(=O)C(=O)NC[C@H](NC(=O)c3ccc(Nc4nc(NC5(c6ccc(Cl)cc6)CC5)nc(OCC(F)(F)F)n4)cc3)C(=O)O)cc2)cs1 [Compound 3275],0.01 to 10
15,O=C(NCCC(NC(=O)c1ccc(Nc2nc(NC3(c4ccc(Cl)cc4)CC3)nc(OCC(F)(F)F)n2)cc1)C(=O)O)C(=O)Nc1ccc(Cn2cccn2)cc1 (stereo not drawn) [Compound 3533],0.01 to 10
16,CC(C)(CNC(=O)C(=O)Nc1ccccc1C1CC1)CNC(=O)c1ccc(Nc2nc(NC3(c4ccc(Cl)cc4)CC3)nc(OCC(F)(F)F)n2)cc1 [Compound 3076],0.01 to 10
17,COC(=O)[C@H](CCNC(=O)C(=O)NC1CCC(S(C)(=O)=O)CC1)NC(=O)c1ccc(Nc2nc(NC3(c4ccc(Cl)cc4)CC3)nc(OCC(F)(F)F)n2)cc1 (stereo partly drawn) [Compound 3119],0.01 to 10
18,COc1cccc(-c2ccc(NC(=O)C(=O)NCC(C)(C)CNC(=O)c3ccc(Nc4nc(NC5(c6ccc(Cl)cc6)CC5)nc(OCC(F)(F)F)n4)cc3F)cc2)c1 [Compound 3563],0.01 to 10
19,O=C(Nc1ccc(F)cc1)C(=O)N1CCCC(CNC(=O)c2ccc(Nc3nc(NC4(c5ccc(Cl)cc5)CC4)nc(OCC(F)(F)F)n3)cc2)C1 (stereo not drawn) [Compound 3482],0.01 to 10
